Common to all, as to type: in vivo
The subject of test [1] is human scirrhous gastric cancer cell line (HSC-39). The test is described as follows: Combination use with 5-fluorouracil in subcutaneous transplanted (xenograft) models of HSC-39. Conditions: HSC-39 xenograft, nude mice. How it is done: (§1) Human scirrhous gastric cancer cell line HSC-39 (purchased from Immuno-Biological Laboratories Co., Ltd.) was cultured in RPMI1640 (containing 10% FBS) in a 5% carbon dioxide gas incubator at 37° C. to about 80% confluence, and then the cells were collected with trypsin-EDTA. A 5×10^7 cells/mL suspension was prepared with a phosphate buffer, and each 0.1 mL of the resulting cell suspension was subcutaneously transplanted to nude mice at the side of their bodies. Thirteen days after the transplantation, 4-(3-chloro-4-(cyclopropylaminocarbonyl)aminophenoxy)-7-methoxy-6-quinolinecarboxamide (3, 10 or 30 mg/kg, once a day for four weeks, oral) and 5-fluorouracil (Kyowa Hakko) (50 mg/kg, every four days for three times, intravenous) were administered alone or in combination. The major and minor axes of tumors were measured with Digimatic caliper (Mitsutoyo Corporation), and tumor volumes and relative tumor volumes were calculated according to the following formulae: […]

For test [2] the test system is unchanged. Description: Combination use with paclitaxel in subcutaneous transplanted (xenograft) models of HSC-39. To be noted: HSC-39 xenograft, nude mice. As for the experimental part: as §1, with “Eleven” for “Thirteen”, “paclitaxel (Calbiochem) (14” for “5-fluorouracil (Kyowa Hakko) (50”, “once a day” for “every four days”, “five days,” for “three times,”
For test [3] the test system is unchanged. The test is described as follows: Combination use with irinotecan hydrochloride in subcutaneous transplanted (xenograft) models of HSC-39. To be noted: once a day for four weeks, oral, HSC-39 xenograft, nude mice. As for the experimental part:
Human scirrhous gastric cancer cell line HSC-39 (purchased from Immuno-Biological Laboratories Co,. Ltd.) was cultured in RPMI1640 (containing 10% FBS) in a 5% carbon dioxide gas incubator at 37° C. to about 80% confluence, and then the cells were collected with trypsin-EDTA. A 5×10^7 cells/mL suspension was prepared with a phosphate buffer, and each 0.1 mL of the resulting cell suspension was subcutaneously transplanted to nude mice at the side of their bodies.
Twelve days after the transplantation, 4-(3-chloro-4-(cyclopropylaminocarbonyl)aminophenoxy)-7-methoxy-6-quinolinecarboxamide (3, 10 or 30 mg/kg, once a day for four weeks, oral) and irinotecan hydrochloride (Daiichi Seiyaku) (100 mg/kg, every four days for three times, intravenous) were administered alone or in combination. The major and minor axes of tumors were measured with Digimatic caliper (Mitsutoyo Corporation), and tumor volumes and relative tumor volumes were calculated according to the following formulae: Tumor Volume (TV)=Major axis of tumor (mm)×(Minor axis of tumor)^2 (mm^2)/2 Relative Tumor Volume (RTV)=Tumor volume on measurement day/Tumor volume on the first administration day.

[4] abbreviates: Compound A 3 mg/kg alone, once a day for four weeks, oral.
Where [5] appears, read: Compound A 10 mg/kg alone, once a day for four weeks, oral.
Where [6] appears, read: Compound A 30 mg/kg alone, once a day for four weeks, oral.

`O=c1[nH]cc(F)c(=O)[nH]1` [5-Fluorouracil, 5-fluorouracil, reference compound]: the “Relative tumor volume on Day 29 Average ± standard deviation” value in test [1] (5-fluorouracil 50 mg/kg alone, every four days for three times, intravenous) was found to be 5.16 ± 1.37.

On to `CC(=O)O[C@H]1C(=O)[C@@]2(C)[C@H]([C@H](OC(=O)c3ccccc3)[C@]3(O)C[C@H](OC(=O)[C@H](O)[C@@H](NC(=O)c4ccccc4)c4ccccc4)C(C)=C1C3(C)C)[C@]1(OC(C)=O)CO[C@@H]1C[C@@H]2O` [Paclitaxel, paclitaxel, reference compound], for which the “Relative tumor volume on Day 29 Average ± standard deviation” value in test [2] (paclitaxel 14 mg/kg alone, once a day for five days, intravenous) is given as 4.26 ± 2.06.

Turning to `COc1cc2nccc(Oc3ccc(NC(=O)NC4CC4)c(Cl)c3)c2cc1C(N)=O` [Compound A, 4-(3-chloro-4-(cyclopropylaminocarbonyl)aminophenoxy)-7-methoxy-6-quinolinecarboxamide], the “Relative tumor volume on Day 29 Average ± standard deviation” value in test [3] (Compound A 3 mg/kg alone) stood at 4.29 ± 1.51; in test [3] (Compound A 10 mg/kg alone), 2.93 ± 1.55; in test [3] (Compound A 30 mg/kg alone) it was 1.76 ± 0.92; in test [2] (setting [4]) it was 3.79 ± 1.43; in test [2] (setting [5]), 3.27 ± 1.26; in test [2] (setting [6]), 1.69 ± 0.72. Also, the “Relative tumor volume on Day 29 Average ± standard deviation” value in test [1] (setting [4]) amounted to 4.16 ± 1.28; in test [1] (setting [5]), 3.73 ± 1.21; in test [1] (setting [6]), 2.72 ± 1.33.

The values are drawn from patent publication US8962655B2, “Composition for treatment of undifferentiated gastric cancer” (Eisai R&D Management Co., Ltd., priority 2007, dated 2015).
